No end group written: not given here.
Columns and labels:
S. aureus (MRSA) = type: cell-based, Staphylococcus aureus; conditions: Table 15, strain SAP0017; in µg/mL
S. epidermidis C621 = type: cell-based, Staphylococcus epidermidis; conditions: Table 15
E. coli UB1005 = type: cell-based, Escherichia coli; conditions: Table 14
S. typhimurium 14028S = type: cell-based, Salmonella typhimurium; conditions: Table 14
P. aeruginosa H374 = type: cell-based, Pseudomonas aeruginosa; conditions: Table 14; in µg/mL
[1] = tested on: Pseudomonas aeruginosa H187; type: cell-based; conditions: Table 15; in µg/mL
Candida albicans 105 = type: cell-based; conditions: Table 15; in µg/mL

Substance	MIC S. aureus SAP0017 (S. aureus (MRSA))	MIC S. epidermidis C621 (S. epidermidis C621)	MIC E. coli UB1005 (E. coli UB1005)	MIC S. typhimurium 14028S (S. typhimurium 14028S)	MIC P. aeruginosa H374 (P. aeruginosa H374)	MIC P. aeruginosa H187 [1]	MIC C. albicans 105 (Candida albicans 105)
FAKLA-NH2 [P128 (90)]	>128	128 µg/mL	128 µg/mL	> 128 µg/mL	>128	>128	128
FAKLLAKLAKAKL-NH2 [P65 (44)]	>128	> 128 µg/mL	128 µg/mL	> 128 µg/mL	64	>128	64
FAKIIAKIAKKI-NH2 [P143 (105)]	>128	> 128 µg/mL	> 128 µg/mL	> 128 µg/mL	>128	>128	>128
FAFGKGIGKVGKKLL-NH2 [P133 (95)]	>128	> 128 µg/mL	> 128 µg/mL	> 128 µg/mL	>128	>128	>128
FALLKALKKAL-NH2 [P171 (132)]	>128	128 µg/mL	32 µg/mL	> 128 µg/mL	>128	>128	>128
FAKLLAKLAKKEL-NH2 [P126 (88)]	>128	> 128 µg/mL	> 128 µg/mL	> 128 µg/mL	>128	>128	>128
KFKKLAKKF-NH2 [P174 (135)]	>128	> 128 µg/mL	> 128 µg/mL	> 128 µg/mL	>128	>128	>128
MPKEKVFLKIEKMGRNIRN-NH2 [P107 (71)]	>128	> 128 µg/mL	> 128 µg/mL	> 128 µg/mL	>128	>128	>128
FAKLAKKALAKLL-NH2 [P148 (110)]	>128	128 µg/mL	128 µg/mL	> 128 µg/mL	>128	>128	128
FAKLF-NH2 [P129 (91)]	>128	32 µg/mL	64 µg/mL	> 128 µg/mL	>128	>128	128
FAKLLAKLAKAKG-NH2 [P96 (62)]	>128	> 128 µg/mL	> 128 µg/mL	> 128 µg/mL	>128	>128	>128
KFKKLAKKW-NH2 [P175 (136)]	>128	> 128 µg/mL	> 128 µg/mL	> 128 µg/mL	>128	>128	>128
FAKAIAKIAFGKGIGKVGKKLL-NH2 [P134 (96)]	>128	128 µg/mL	128 µg/mL	> 128 µg/mL	128	>128	64
KAKLAKKALAKLL-NH2 [P149 (111)]	>128	> 128 µg/mL	32 µg/mL	> 128 µg/mL	128	>128	128
FGKGIGKVGKKLL-NH2 [P132 (94)]	>128	> 128 µg/mL	128 µg/mL	> 128 µg/mL	>128	>128	128
FAKLWAKLAKKL-NH2 [P136 (98)]	>128	128 µg/mL	128 µg/mL	> 128 µg/mL	>128	>128	64

Substance	MIC S. aureus SAP0017 (S. aureus (MRSA))	MIC S. epidermidis C621 (S. epidermidis C621)	MIC E. coli UB1005 (E. coli UB1005)	MIC S. typhimurium 14028S (S. typhimurium 14028S)	MIC P. aeruginosa H374 (P. aeruginosa H374)	MIC P. aeruginosa H187 [1]	MIC C. albicans 105 (Candida albicans 105)
FAKLLAKLAK-NH2 [P123 (85)]	>128	16 µg/mL	64 µg/mL	> 128 µg/mL	>128	>128	64
FAFGKGIGKIGKKGL-NH2 [P138 (100)]	>128	> 128 µg/mL	> 128 µg/mL	> 128 µg/mL	>128	>128	>128
FAKLLAKLAKK-NH2 [P151 (113)]	>128	> 128 µg/mL	> 128 µg/mL	> 128 µg/mL	128	>128	128
FAKLLAKLAKKGL-NH2 [P152 (114)]	>128	32 µg/mL	32 µg/mL	> 128 µg/mL	>128	>128	128
KWKLAKKALALL-NH2 [P142 (104)]	>128	128 µg/mL	64 µg/mL	128 µg/mL	>128	>128	64
FAKLLAKLAKKSL-NH2 [P127 (89)]	>128	64 µg/mL	128 µg/mL	> 128 µg/mL	>128	>128	32
FALLKL-NH2 [P168 (129)]	>128	128 µg/mL	128 µg/mL	> 128 µg/mL	128	128	128
FAKKLAKKLAKAAL-NH2 [P76 (52)]	>128	> 128 µg/mL	16 µg/mL	128 µg/mL	64	>128	64
FAKLLFKALKKAL-NH2 [P112 (76)]	>128	64 µg/mL	> 128 µg/mL	> 128 µg/mL	>128	>128	128
FALKALKK-NH2 [P145 (107)]	>128	> 128 µg/mL	> 128 µg/mL	> 128 µg/mL	>128	>128	64
VALALKALKKL-NH2 [P180 (141)]	>128	> 128 µg/mL	> 128 µg/mL	> 128 µg/mL	>128	>128	>128
FALALKA-NH2 [P141 (103)]	>128	> 128 µg/mL	> 128 µg/mL	> 128 µg/mL	>128	>128	>128
YAKLLAKLAKKAL-NH2 [P155 (117)]	>128	> 128 µg/mL	> 128 µg/mL	> 128 µg/mL	>128	>128	>128
FAKLFAKLAKKFAL-NH2 [P121 (83)]	>128	> 128 µg/mL	> 128 µg/mL	> 128 µg/mL	>128	>128	64
FALKALKKAL-NH2 [P170 (131)]	0.128	> 128 µg/mL	64 µg/mL	> 128 µg/mL	>128	>128	128

Source: patent US20050209157A1, “Short bioactive peptides and methods for their use” (priority 2001, published 2005)
